Here are results for 32 compounds from US7173004B2, “Macrocyclic isoquinoline peptide inhibitors of hepatitis C virus” (Bristol-Myers Squibb Company, priority 2003, dated 2007).

Each structure is given as a SMILES string.

The assay has as its system HCV replicon (HCV 1b-377-neo replicon cells, Huh7). The experiment in a line: HCV replicon cell-based FRET assay. The settings on record: Hepatitis C virus, Huh-7. Summed up:
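Huh7 cells carrying a neo-selectable genotype 1b HCV replicon (~3,000 RNA copies/cell) were seeded at 1.5×10^4 cells/well and treated 4 days at 37 °C (0.5% DMSO final). CC50 was read by alamar Blue (4 h, ex 530/em 580 nm). Lysates with 10 μM EDANS/DABCYL NS3 protease FRET peptide were read kinetically (ex 340/em 490 nm, 25 °C, ~15 min) for % inhibition.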
Background: In antiviral work, replicon cells carry a viral genome segment that copies itself.
A word on the EC50: it is the concentration that produces a half-maximal response. The low end stands for greater potency, the high end for weaker potency. For the compound `COc1ccc2c(OC3CC4C(=O)NC5(C(=O)NS(=O)(=O)C6CC6)CC5C=CCCCSC(C)(C)C(N)C(=O)N4C3)nccc2c1` (centres unmarked) [Compound 83], the EC50 fell in the range of 5000 to 50000 nM.

Take `COc1cccc2c(OC3CC4C(=O)NC5(C(=O)NS(=O)(=O)C6CC6)CC5C=CCCCCCC(NC(=O)OC(C)(C)C)C(=O)N4C3)nccc12` (centres unmarked) [Compound 133]: the EC50 is below 50 nM.

For the compound `COc1ccc2c(OC3CC4C(=O)NC5(C(=O)NS(=O)(=O)C6CC6)CC5C=CCCCOCC(NC(=O)OCC(C)(C)C)C(=O)N4C3)nccc2c1` (centres unmarked) [Compound 88], the concentration giving a half-maximal response (EC50) is below 50 nM.

Turning to `COc1ccc2c(OC3CC4C(=O)NC5(C(=O)NS(=O)(=O)C6CC6)CC5C=CCOCCCC(NC(=O)Nc5ccc(C#N)cc5)C(=O)N4C3)nc(-c3ccccc3)cc2c1` (centres unmarked) [Compound 105], the EC50 was 50 to 500 nM.

Consider `O=C(NC1CCCC1)NC1CCCCCC=CC2CC2(C(=O)NS(=O)(=O)C2CC2)NC(=O)C2CC(Oc3nccc4ccccc34)CN2C1=O` (centres unmarked) [Compound 127], for which the EC50 is below 50 nM.

As for `COc1ccc2c(OC3CC4C(=O)NC5(C(=O)NS(=O)(=O)C6CC6)CC5C=CCCCOCC(NC(=O)OC(C)C)C(=O)N4C3)nc(-c3ccccc3)cc2c1` (centres unmarked) [Compound 96], the EC50 was below 50 nM.

Take `CC(C)NC(=O)NC1CCCCCC=CC2CC2(C(=O)NS(=O)(=O)C2CC2)NC(=O)C2CC(Oc3nccc4ccccc34)CN2C1=O` (centres unmarked) [Compound 128]: the EC50 was below 50 nM.

Turning to `COc1ccc2c(OC3CC4C(=O)NC5(C(=O)NS(=O)(=O)C6CC6)CC5C=CCCCOCC(NC(=O)OC5CCCC5)C(=O)N4C3)nc(-c3ccc(N(C)C)cc3)cc2c1` (centres unmarked) [Compound 110], the EC50 was below 50 nM.

Regarding `COc1ccc2c(O[C@@H]3C[C@H]4C(=O)N[C@]5(C(=O)NS(=O)(=O)C6CC6)C[C@H]5/C=C\CCCSC(C)(C)[C@H](NC(=O)OC(C)(C)C)C(=O)N4C3)nccc2c1` [Compound 80, (1S,4R,6S,14R,18R)-[7-cis-4-Cyclopropanesulfonylaminocarbonyl-13,13-dimethyl-18-(6-methoxyisoquinolin-1-yloxy)-2,15-dioxo-12-thia-3,16-diaza-tricyclo[14.3.0.0^4,6]nonadec-7-en-14-yl]carbamic acid, tert-butyl ester], the EC50 lay in the range of 50 to 500 nM.

In turn, `COc1ccc2c(OC3CC4C(=O)NC5(C(=O)NS(=O)(=O)C6CC6)CC5C=CCCCCCC(NC(=O)NC(C)(C)C)C(=O)N4C3)nccc2c1` (centres unmarked) [Compound 135] yielded an EC50 below 50 nM.

Take `CCC(C)(C)OC(=O)NC1CCCCCC=CC2CC2(C(=O)NS(=O)(=O)C2CC2)NC(=O)C2CC(Oc3nccc4ccccc34)CN2C1=O` (centres unmarked) [Compound 125]: the EC50 was below 50 nM.

Regarding `COc1ccc2c(OC3CC4C(=O)NC5(C(=O)NS(=O)(=O)C6CC6)CC5C=CCOCCCC(NC(=O)NC(C)(C)C)C(=O)N4C3)nc(-c3ccccc3)cc2c1` (centres unmarked) [Compound 102], the EC50 is below 50 nM.

In turn, `COc1ccc2c(OC3CC4C(=O)NC5(C(=O)NS(=O)(=O)C6(C)CC6)CC5C=CCCCSCC(NC(=O)OC(C)(C)C)C(=O)N4C3)nccc2c1` (centres unmarked) [Compound 115] returned a concentration giving a half-maximal response (EC50) below 50 nM.

Compound `COc1ccc2c(OC3CC4C(=O)NC5(C(=O)NS(=O)(=O)C6CC6)CC5C=CCCCSC(C)(C)C(NC(=O)NC5CCCC5)C(=O)N4C3)nccc2c1` (centres unmarked) [Compound 82] registered an EC50 of 50 to 500 nM.

Take `COc1ccc2c(OC3CC4C(=O)NC5(C(=O)NS(=O)(=O)C6CC6)CC5C=CCCCOCC(NC(=O)OCC(C)(C)C)C(=O)N4C3)nc(-c3ccccc3)cc2c1` (centres unmarked) [Compound 95]: the EC50 is below 50 nM.

Compound `COc1ccc2c(O[C@@H]3C[C@H]4C(=O)N[C@]5(C(=O)NS(=O)(=O)C6CC6)C[C@H]5/C=C\CCCOC[C@H](NC(=O)OC(C)(C)C)C(=O)N4C3)nccc2c1` [Compound 85, (1S,4R,6S,14S,18R)-[7-cis-4-Cyclopropanesulfonylaminocarbonyl-18-(6-methoxy-isoquinolin-1-yloxy)-2,15-dioxo-12-oxa-3,16-diaza-tricyclo[14.3.0.0^4,6]nonadec-7-en-14-yl]-carbamic acid, tert-butyl ester] showed an EC50 below 50 nM.

On to `COc1ccc2c(OC3CC4C(=O)NC5(C(=O)NS(=O)(=O)C6CC6)CC5C=CCOCCCC(NC(=S)NC5CC5)C(=O)N4C3)nc(-c3ccccc3)cc2c1` (centres unmarked) [Compound 104], for which the EC50 lay within 50 to 500 nM.

Compound `O=CNC1CCCCCC=CC2CC2(C(=O)NS(=O)(=O)C2CC2)NC(=O)C2CC(Oc3nccc4ccccc34)CN2C1=O` (centres unmarked) [Compound 119] displayed an EC50 of 50 to 500 nM.

For `COc1ccc2c(OC3CC4C(=O)NC5(C(=O)NS(=O)(=O)C6CC6)CC5C=CCOCCCC(NC(=O)OC(C)(C)C)C(=O)N4C3)nc(-c3ccc(N(C)C=O)cc3)cc2c1` (centres unmarked) [Compound 114], the EC50 is below 50 nM.

Regarding `COc1ccc2c(OC3CC4C(=O)NC5(C(=O)NS(=O)(=O)C6CC6)CC5C=CCCCOCC(NC(=O)OC5CCCC5)C(=O)N4C3)nccc2c1` (centres unmarked) [Compound 90], the EC50 was below 50 nM.

Compound `CNc1ccc(-c2cc3cc(OC)ccc3c(OC3CC4C(=O)NC5(C(=O)NS(=O)(=O)C6CC6)CC5C=CCOCCCC(NC(=O)OC(C)(C)C)C(=O)N4C3)n2)cc1` (centres unmarked) [Compound 113] yielded an EC50 below 50 nM.

Turning to `COc1ccc2c(OC3CC4C(=O)NC5(C(=O)NS(=O)(=O)C6CC6)CC5C=CCCCOCC(NC(=O)NC5CCCC5)C(=O)N4C3)nccc2c1` (centres unmarked) [Compound 87], the 50% effective concentration (EC50) was below 50 nM.

`COc1ccc2c(OC3CC4C(=O)NC5(C(=O)NS(=O)(=O)C6CC6)CC5C=CCCCOCC(NC(=O)N5CCCC5)C(=O)N4C3)nc(-c3ccc(N(C)C)cc3)cc2c1` (centres unmarked) [Compound 111] yielded an EC50 below 50 nM.

Compound `CC1(COC(=O)NC2CCCCCC=CC3CC3(C(=O)NS(=O)(=O)C3CC3)NC(=O)C3CC(Oc4nccc5ccccc45)CN3C2=O)CC1` (centres unmarked) [Compound 122] had a 50% effective concentration (EC50) below 50 nM.

With `COc1ccc2c(OC3CC4C(=O)NC5(C(=O)NS(=O)(=O)C6CC6)CC5C=CCCCCCC(NC(=O)NC5CCCC5)C(=O)N4C3)nccc2c1` (centres unmarked) [Compound 136], the EC50 is below 50 nM.

For `COc1ccc2c(OC3CC4C(=O)NC5(C(=O)NS(=O)(=O)C6CC6)CC5C=CCCCOCC(NC(=O)OC(C)C)C(=O)N4C3)nc(-c3ccc(N(C)C)cc3)cc2c1` (centres unmarked) [Compound 109], the EC50 was below 50 nM.

Turning to `CC(C)(C)NC(=O)N1CCC/C=C\[C@@H]2C[C@@]2(C(=O)NS(=O)(=O)C2CC2)NC(=O)[C@@H]2C[C@@H](Oc3nccc4ccccc34)CN2C(=O)[C@@H](NC(=O)OC(C)(C)C)C1` [Compound 150], the 50% effective concentration (EC50) was 50 to 500 nM.

Take `COc1ccc2c(OC3CC4C(=O)NC5(C(=O)NS(=O)(=O)C6CC6)CC5C=CCCCOCC(NC(=O)N5CCCC5)C(=O)N4C3)nc(-c3ccccc3)cc2c1` (centres unmarked) [Compound 93]: the EC50 is below 50 nM.

Consider `COc1ccc2c(OC3CC4C(=O)NC5(C(=O)NS(=O)(=O)C6CC6)CC5C=CCCCOCC(NC(=O)OC5CCCC5)C(=O)N4C3)nc(-c3ccccc3)cc2c1` (centres unmarked) [Compound 94], for which the half-maximal effective concentration (EC50) is below 50 nM.

`CCC1(S(=O)(=O)NC(=O)C23CC2C=CCCCSCC(NC(=O)OC(C)(C)C)C(=O)N2CC(Oc4nccc5cc(OC)ccc45)CC2C(=O)N3)CC1` (centres unmarked) [Compound 121]: the EC50 is below 50 nM.

Compound `COc1ccc2c(OC3CC4C(=O)NC5(C(=O)NS(=O)(=O)C6CC6)CC5C=CCCCSCC(N)C(=O)N4C3)nccc2c1` (centres unmarked) [Compound 117] returned an EC50 of 50 to 500 nM.

On to `COc1ccc2c(OC3CC4C(=O)NC5(C(=O)NS(=O)(=O)C6CC6)CC5C=CCCCOCC(NC(=O)NC(C)(C)C)C(=O)N4C3)nccc2c1` (centres unmarked) [Compound 86], for which the EC50 is below 50 nM.
